Data on 17 compounds can be found in US9840511B2, “2-(aryl or heteroaryl-)phenyl (AZA)benzofuran compounds for the treatment of hepatitis C” (BRISTOL-MYERS SQUIBB COMPANY, priority 2014, dated 2017).

In general, EC50 refers to the concentration at which the effect is half-maximal.

Series [1] deals with genotype 1b (Con-1) HCV replicon. The experiment in a line: HCV replicon luciferase assay. The following applies: Hepatitis C virus, 72 h, Huh-7 cells, genotype 1b replicon, Renilla luciferase, 3 days incubation. Format: cell-based. The method, then: Cell lines. The cell lines used to evaluate compounds consist of a human hepatocyte derived cell line (Huh-7) that constitutively expresses a genotype 1b (Con-1) HCV replicon or a genotype 1b (Con-1) HCV replicon with an asparagine replacing the cysteine at amino acid 316, or a genotype 2a (JFH-1) replicon, containing a Renilla luciferase reporter gene. These cells were maintained in Dulbecco's modified Eagle medium (DMEM) containing 10% FBS, 100 U/mL penicillin/streptomycin and 1.0 mg/mL G418.
HCV replicon luciferase assay. To evaluate compound efficacy, titrated compounds were transferred to sterile 384-well tissue culture treated plates, and the plates were seeded with HCV replicon cells (50 μL at a density of 2.4×10^3 cells/well) in DMEM containing 4% FBS (final DMSO concentration at 0.5%). After 3 days incubation at 37° C., cells were analyzed for Renilla Luciferase activity using the EnduRen substrate (Promega cat #E6485) according to the manufacturer's directions. Briefly, the EnduRen substrate was diluted in DMEM and then added to the plates to a final concentration of 7.5 μM. The plates were incubated for at least 1 h at 37° C. then read on a Viewlux Imager (PerkinElmer) using a luminescence program. The 50% effective concentration (EC50) was calculated using the four-parameter logistic formula noted above.
Compound EC50 data is expressed as A:<100 nM; B=100-1000 nM; C>1000 nM).

For series [2] the following is noted: extended dosing of the combination regimens; cited from earlier work.
Another series has as its system HCV. Conditions: combination therapy; cited from earlier work.

Where two headings read alike, the source gives them in different places. Where only a bound is given, the exact number is not on record here.

Regarding `CCN(c1cc2oc(-c3ccc(-n4cccn4)cc3)c(C(=O)NC)c2cc1-c1cccc(C(=O)NC(C)(C)C)c1)S(C)(=O)=O` [Compound 1001], the values for the EC50 in series [1] (read-out: EC50 (uM) lb) and in series [1] (read-out: EC50 lb (class)) were 0.017 µM and below 0.1 µM, respectively.
Regarding `CCN(c1cc2oc(-c3ccc(-n4ccnn4)cc3)c(C(=O)NC)c2cc1-c1cccc(C(=O)NC(C)(C)C)c1)S(C)(=O)=O` [Compound 1002], the EC50 in series [1] (read-out: EC50 (uM) lb) is 0.069 µM; in series [1] (read-out: EC50 lb (class)), below 0.1 µM.
With `CCN(c1cc2oc(-c3ccc(-n4nccn4)cc3)c(C(=O)NC)c2cc1-c1cccc(C(=O)NC(C)(C)C)c1)S(C)(=O)=O` [Compound 1003], the EC50 in series [1] (read-out: EC50 lb (class)) was below 0.1 µM.
Take `CNC(=O)c1c(-c2ccc(-n3ccc(C(F)(F)F)n3)cc2)oc2nc(-n3ccc(C(F)(F)F)n3)c(-c3cccc(C(=O)NC(C)(C)C)c3)cc12` [Compound 2001]: in series [1] (read-out: EC50 lb (class)), the EC50 was 0.1 to 1 µM.
Turning to `CNC(=O)c1c(-c2ccc(-n3cc(C(F)(F)F)cn3)cc2)oc2nc(-n3cc(C(F)(F)F)cn3)c(-c3cccc(C(=O)NC(C)(C)C)c3)cc12` [Compound 2002], the EC50 in series [1] (read-out: EC50 lb (class)) was above 1 µM.
For the compound `CNC(=O)c1c(-c2ccc(-n3ccnn3)cc2)oc2nc(CCC(F)(F)F)c(-c3cccc(C(=O)NC(C)(C)C)c3)cc12` [Compound 3001], the EC50 in series [1] (read-out: EC50 (uM) lb) is 0.035 µM; in series [1] (read-out: EC50 lb (class)), below 0.1 µM.
On to `CNC(=O)c1c(-c2ccc(-n3ncnc3C)cc2)oc2nc(CCC(F)(F)F)c(-c3cccc(C(=O)NC(C)(C)C)c3)cc12` [Compound 3002], for which the concentration giving a half-maximal response (EC50) in series [1] (read-out: EC50 lb (class)) is above 1 µM.
`CNC(=O)c1c(-c2ccc(-n3cnnc3C)cc2)oc2nc(CCC(F)(F)F)c(-c3cccc(C(=O)NC(C)(C)C)c3)cc12` [Compound 3003]: the results for the EC50 in series [1] (read-out: EC50 (uM) lb) and in series [1] (read-out: EC50 lb (class)) were 3.32 µM and above 1 µM, respectively.
For `CNC(=O)c1c(-c2ccc(-n3cnc(C)n3)cc2)oc2nc(CCC(F)(F)F)c(-c3cccc(C(=O)NC(C)(C)C)c3)cc12` [Compound 3004], in series [1] (read-out: EC50 lb (class)), the EC50 was 0.1 to 1 µM.
`CNC(=O)c1c(-c2ccc(-n3ccnc3)cc2)oc2nc(CCC(F)(F)F)c(-c3cccc(C(=O)NC(C)(C)C)c3)cc12` [Compound 3006]: the EC50 in series [1] (read-out: EC50 lb (class)) lay in the range of 0.1 to 1 µM.
`CNC(=O)c1c(-c2ccc(-n3cncn3)cc2)oc2nc(CCC(F)(F)F)c(-c3cccc(C(=O)NC(C)(C)C)c3)cc12` [Compound 3007]: in series [1] (read-out: EC50 lb (class)), the EC50 fell in the range of 0.1 to 1 µM.
Regarding `CNC(=O)c1c(-c2ccc(-n3cc(C)cn3)cc2)oc2nc(CCC(F)(F)F)c(-c3cccc(C(=O)NC(C)(C)C)c3)cc12` [Compound 3008], the EC50 in series [1] (read-out: EC50 lb (class)) was above 1 µM.
Same read-out and setting: in the case of `CNC(=O)c1c(-c2ccc(-n3cnc(C)c3)cc2)oc2nc(CCC(F)(F)F)c(-c3cccc(C(=O)NC(C)(C)C)c3)cc12` [Compound 3009] it was above 1 µM.
For `CNC(=O)c1c(-c2ccc(-n3ccc(C)n3)cc2)oc2nc(CCC(F)(F)F)c(-c3cccc(C(=O)NC(C)(C)C)c3)cc12` [Compound 3010], the results for the EC50 in series [1] (read-out: EC50 (uM) lb) and in series [1] (read-out: EC50 lb (class)) were 0.28 µM and 0.1 to 1 µM, respectively.
Take `CNC(=O)c1c(-c2ccc(-c3ncccc3O)cc2)oc2nc(CCC(F)(F)F)c(-c3cccc(C(=O)NC(C)(C)C)c3)cc12` [Compound 4001]: the EC50 in series [1] (read-out: EC50 lb (class)) was 0.1 to 1 µM.
On to `CNC(=O)c1c(-c2ccc(F)cc2)oc2cc(N(CCO)S(C)(=O)=O)c(C3CC3)cc12` [HCV-796], for which, in series [2], the hepatic toxicity entry is listed as “hepatic toxicity observed”.
With alpha-interferon and ribavirin, the “sustained efficacy, share of patients” value with HCV is listed as 40%.
